Laboratory results as given in PMC4394992 (Journal of controlled release : official journal of the …, 2015).

What was measured:
[1] = test system: 4T1 murine breast cancer cells; test: Cell proliferation MTS assay; format: cell-based; details: Mus musculus, 96 h
Miapaca-2 cells = test: Cell clonogenic assay, drug alone; format: cell-based, human; details: Miapaca-2, 3 µM
4T1 cells = test: Cell clonogenic assay, drug alone; format: cell-based, murine; details: 4T1, 3 µM

CC1=C2C[C@H]3[C@@H](CC=C4C[C@@H](O)CC[C@@]43C)[C@@H]2CC[C@]12O[C@@H]1C[C@H](C)CN[C@H]1[C@H]2C [free CPA, cyclopamine]
IC50 [1]: 11.3 ± 1.2 µM
Reduction of colony numbers (Miapaca-2 cells): 17.7% ± 4.3
Reduction of colony numbers (4T1 cells): 6.7% ± 6.1
